Measurements: patent publication EP3035931B1, “COMPOSITION FOR REDUCING NERVOUS SYSTEM INJURY AND METHOD OF MAKING AND USE THEREOF” (Morehouse School of Medicine, priority 2013, dated 2015)

Experiments:
[1] = assay type: in vivo, rats; settings: n=11
ASIC2a = molecular target: T1, ASIC2a (Homo sapiens, UniProt Q16515); assay: Blockade of ASIC 2a current expressed in CHO cells; assay type: cell-based; settings: CHO cells, FIG. 17
T1 construct: expressed in transfected cells; host or cells: CHO
T1 sequence (Q16515 1-512): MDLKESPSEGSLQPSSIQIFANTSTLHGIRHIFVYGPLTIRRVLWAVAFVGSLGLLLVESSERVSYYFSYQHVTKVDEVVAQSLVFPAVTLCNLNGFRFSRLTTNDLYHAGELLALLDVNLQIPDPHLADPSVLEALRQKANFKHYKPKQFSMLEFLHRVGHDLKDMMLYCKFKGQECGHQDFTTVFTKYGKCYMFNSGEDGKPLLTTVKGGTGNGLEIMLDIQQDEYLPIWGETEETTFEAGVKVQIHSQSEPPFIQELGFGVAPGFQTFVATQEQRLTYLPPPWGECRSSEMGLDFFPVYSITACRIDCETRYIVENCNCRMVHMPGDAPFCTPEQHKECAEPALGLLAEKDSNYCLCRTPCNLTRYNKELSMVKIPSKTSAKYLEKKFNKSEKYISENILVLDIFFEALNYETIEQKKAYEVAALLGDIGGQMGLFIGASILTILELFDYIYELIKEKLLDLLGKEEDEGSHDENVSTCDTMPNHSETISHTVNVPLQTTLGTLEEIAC

Na^+/Ca^2+ ion exchanger = settings: cited from earlier work
cortical neurons [2] = assay type: cell-based, mouse
Method: Background absorbance at 620 was subtracted.
Acid-induced injury was studied on neurons grown on 24-well plates incubated in either pH 7.4 or 6.0 ECF containing MK801, CNQX, and nimodipine; see FIG. 8. Cell injury was assayed by the measurement of lactate dehydrogenase (LDH) release (Koh and Choi, J. Neurosci., 1987, 20:83-90) at various time points (FIGS. 8A and 8B) and by fluorescent staining of alive/dead cells. Compared to neurons treated at pH 7.4, 1 hr acid incubation (pH 6.0) induced a time-dependent increase in LDH release (FIG. 8A). After 24 hr, 45.7% ± 5.4% of maximal LDH release was induced (n=25 wells). Continuous treatment at pH 6.0 induced greater cell injury (FIG. 8B, n=20).

ASIC1a = molecular target: T2, ASIC1a (Homo sapiens, UniProt P78348); assay: Blockade of ASIC 1a current expressed in CHO cells; assay type: cell-based; set-up: expressed in transfected cells; host or cells: CHO; settings: CHO cells, FIG. 16
T2 sequence (P78348 1-528): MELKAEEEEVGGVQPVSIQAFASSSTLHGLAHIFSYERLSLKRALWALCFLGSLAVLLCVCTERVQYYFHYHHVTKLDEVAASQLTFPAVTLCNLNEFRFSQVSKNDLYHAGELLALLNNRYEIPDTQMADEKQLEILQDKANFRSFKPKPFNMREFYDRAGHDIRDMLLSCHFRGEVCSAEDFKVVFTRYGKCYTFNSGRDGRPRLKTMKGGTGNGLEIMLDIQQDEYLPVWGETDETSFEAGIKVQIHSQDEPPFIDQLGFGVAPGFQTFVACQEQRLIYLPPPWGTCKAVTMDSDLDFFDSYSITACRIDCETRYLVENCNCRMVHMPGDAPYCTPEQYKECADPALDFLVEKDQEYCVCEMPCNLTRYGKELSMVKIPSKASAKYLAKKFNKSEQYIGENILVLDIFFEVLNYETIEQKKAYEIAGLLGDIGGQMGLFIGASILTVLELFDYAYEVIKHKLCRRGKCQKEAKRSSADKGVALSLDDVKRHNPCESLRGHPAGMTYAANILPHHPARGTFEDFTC

[3] = test system: COS-7 cells stably transfected with ASIC1a; assay: Acid-induced LDH release in ASIC1a-transfected COS-7 cells; settings: 100 µM; 1 hr pH 6.0, LDH 24 hr after acid incubation
ASICs = molecular target: T3, ASICs (Mus musculus, UniProt Q6NXK8); assay type: cell-based; settings: 100 µM amiloride; pH 6.0; n=6
T3 construct: endogenous in cells; host or cells: primary cortical neurons from E16 Swiss mice
T3 sequence (Q6NXK8 1-526): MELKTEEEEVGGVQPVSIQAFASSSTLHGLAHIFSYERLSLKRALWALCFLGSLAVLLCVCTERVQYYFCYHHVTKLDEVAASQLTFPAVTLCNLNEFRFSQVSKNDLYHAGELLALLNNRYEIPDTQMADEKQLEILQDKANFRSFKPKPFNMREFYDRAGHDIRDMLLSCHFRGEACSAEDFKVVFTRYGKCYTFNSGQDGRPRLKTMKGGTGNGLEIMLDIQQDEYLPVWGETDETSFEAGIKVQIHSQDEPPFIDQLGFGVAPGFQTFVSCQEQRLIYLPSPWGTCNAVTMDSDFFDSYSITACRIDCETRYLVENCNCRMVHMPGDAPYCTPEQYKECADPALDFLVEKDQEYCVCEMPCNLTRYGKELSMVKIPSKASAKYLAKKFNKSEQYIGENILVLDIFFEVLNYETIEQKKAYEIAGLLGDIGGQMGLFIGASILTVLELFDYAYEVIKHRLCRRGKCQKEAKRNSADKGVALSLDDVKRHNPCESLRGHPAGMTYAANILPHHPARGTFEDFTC

cortical neurons [4] = assay: Fura-2 Ca^2+ imaging of acid-induced increase of [Ca^2+]i in cortical neurons; assay type: cell-based, mouse; settings: pH drop to 6.0; blockers of glutamate receptors and voltage-gated Ca^2+ channels present; n=6-8

N=C(N)NC(=O)c1nc(Cl)c(N)nc1N [amiloride]
infarct volume [1]: 229.7 ± 41.1 mm^3
block of ASIC2a current (ASIC2a): dose-dependent
IC50 (Na^+/Ca^2+ ion exchanger): 1100 µM
LDH release at 24 hr (cortical neurons [2]; 100 µM amiloride 10 min before and during 1 hr pH 6.0 incubation, without blocker 45.3% ± 3.8%): 31.1% ± 2.5%
LDH release induced by 1 hr acid incubation of ASIC^+/+ neurons (cortical neurons [2]; pH 6.0, n=8-12): reduced
baseline LDH release (cortical neurons [2]; pH 7.4 ECF for 1 hr): did not affect
LDH release, prolonged incubation with amiloride alone (cortical neurons [2]; prolonged incubation (e.g., 5 hr), n=8): increased LDH release
block of ASIC1a current (ASIC1a): dose-dependent
acid-induced LDH release [3]: inhibited
peak amplitude of Ca^2+-mediated current, of control (ASICs): 26% ± 2%
peak and sustained increases in [Ca^2+]i (cortical neurons [4]): largely inhibited
